What was measured:
[1] = molecular target: T1, human P2X4R (P2X4 receptor) (Homo sapiens, UniProt Q99571); test: cell-based
T1 construct: gene P2RX4
T1 sequence (Q99571 1-388): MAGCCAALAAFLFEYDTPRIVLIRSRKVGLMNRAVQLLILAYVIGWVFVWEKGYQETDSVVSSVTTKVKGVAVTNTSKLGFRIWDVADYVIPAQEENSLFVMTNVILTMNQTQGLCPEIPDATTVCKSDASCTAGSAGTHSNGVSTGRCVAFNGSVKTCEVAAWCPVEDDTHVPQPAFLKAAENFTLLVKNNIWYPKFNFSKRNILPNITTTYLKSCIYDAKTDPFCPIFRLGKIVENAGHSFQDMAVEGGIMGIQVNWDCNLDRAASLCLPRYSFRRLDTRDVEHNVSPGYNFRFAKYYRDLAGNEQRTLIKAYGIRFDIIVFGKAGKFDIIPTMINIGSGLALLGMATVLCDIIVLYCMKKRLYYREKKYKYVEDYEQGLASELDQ

[2] = molecular target: T2, rat P2X4R (rP2X4R) (Rattus norvegicus, UniProt P51577); test: Fura-2 Ca2+ assay (FDSS […]EX), inhibition of […] ATP response, […] duloxetine; type: cell-based
T2 construct: gene P2rx4; rP2X4R stably expressed in 1321N1 cells
T2 sequence (P51577 1-388): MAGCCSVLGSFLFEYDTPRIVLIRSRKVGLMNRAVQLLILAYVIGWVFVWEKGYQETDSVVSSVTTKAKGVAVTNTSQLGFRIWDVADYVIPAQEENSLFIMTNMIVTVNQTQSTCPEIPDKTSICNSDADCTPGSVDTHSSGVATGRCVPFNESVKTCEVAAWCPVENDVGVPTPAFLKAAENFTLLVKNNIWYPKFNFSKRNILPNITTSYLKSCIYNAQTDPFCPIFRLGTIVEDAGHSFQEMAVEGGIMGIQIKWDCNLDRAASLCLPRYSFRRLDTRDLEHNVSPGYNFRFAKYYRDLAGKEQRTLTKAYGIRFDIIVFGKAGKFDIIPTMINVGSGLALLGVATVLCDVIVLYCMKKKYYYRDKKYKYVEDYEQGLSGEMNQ

## CNCC[C@H](Oc1cccc2ccccc12)c1cccs1 [duloxetine]
[1]
  IC50: 1590 nM
[2]
  Fura-2 Ca2+ assay (FDSS 7000EX), inhibition of 10 μM ATP response, 3-30 μM dulox: The inhibitory effect of duloxetine was concentration dependent in rP2X4R-1321N1 cells (Fig 1A).
